# In patent publication US6699686B1, “Modified nuclear glucocorticoid receptor, fusion protein, and DNA fragments coding for said receptor and said fusion protein” (Association pour le Development de la Recherche en …, priority 1996, dated 2004):
# Key:
# hGR(I747/T) = target: T1, hGR(I747/T) (Homo sapiens, UniProt P04150, I747T); assay: Transcriptional activation of pTAT-tk-Luc luciferase reporter in transiently transfected CV-1 cells; type: cell-based; conditions: CV-1 cells, pTAT-tk-Luc; for Luciferase activity % hGR (I747/T): 24 h ligand, mean of three independent assays; for EC50 hGR (I747/T): ligand concentration giving 50% of maximum transcriptional response
# T1 construct: The same shift was observed as with the complete GR (I747/T) mutant; expressed in transfected cells
# T1 sequence (P04150 1-777 I747T): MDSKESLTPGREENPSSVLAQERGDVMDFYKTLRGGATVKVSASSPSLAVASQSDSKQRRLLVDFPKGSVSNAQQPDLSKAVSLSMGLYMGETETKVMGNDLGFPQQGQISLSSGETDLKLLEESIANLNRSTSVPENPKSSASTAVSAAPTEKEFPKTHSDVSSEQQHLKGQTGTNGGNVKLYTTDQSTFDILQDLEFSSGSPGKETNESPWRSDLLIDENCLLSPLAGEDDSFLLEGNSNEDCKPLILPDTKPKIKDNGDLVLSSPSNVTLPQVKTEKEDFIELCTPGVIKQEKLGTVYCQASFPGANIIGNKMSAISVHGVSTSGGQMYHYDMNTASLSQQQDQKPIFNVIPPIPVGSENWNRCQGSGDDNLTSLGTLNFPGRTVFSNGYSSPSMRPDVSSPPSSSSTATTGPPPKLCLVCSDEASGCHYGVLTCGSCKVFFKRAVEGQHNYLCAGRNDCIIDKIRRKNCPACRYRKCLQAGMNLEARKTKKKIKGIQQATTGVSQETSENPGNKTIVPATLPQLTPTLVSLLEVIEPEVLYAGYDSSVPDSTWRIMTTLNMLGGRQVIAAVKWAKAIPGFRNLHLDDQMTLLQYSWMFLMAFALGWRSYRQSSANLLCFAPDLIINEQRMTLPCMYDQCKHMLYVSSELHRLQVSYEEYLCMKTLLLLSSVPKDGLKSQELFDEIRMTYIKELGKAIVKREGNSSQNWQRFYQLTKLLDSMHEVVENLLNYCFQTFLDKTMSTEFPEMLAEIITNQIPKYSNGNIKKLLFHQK
# Protocol: The receptors were transiently expressed in GR-free CV-1 cells, conjointly with a luciferase reporter gene under the control of the tyrosine aminotransferase promoter (pTAT-tk-Luc).
# After transfection, the cells were incubated for 24 hours with increasing concentrations of Dex, and they were then subjected to an assay of the β-galactosidase and luciferase activities, as described in “Materials and Methods”. The luciferase activity was normalized with the β-galactosidase activity, and the value obtained in the absence of ligand was subtracted for each point. The results were expressed as a percentage of the maximum luciferase activity obtained for each receptor. Each point is the mean±standard deviation of the mean of four separate determinations carried out in duplicate. […] The [^3H] steroid attached was measured after treatment with dextran-coated charcoal. The results presented are those for a single assay carried out in duplicate and representative of three separate assays.
# Co-transfections were carried out and dose-response curves were constructed as described in FIG. 2. […] The assays of luciferase and β-galactosidase activity were carried out as described in “Materials and Methods”. The mean values of three independent assays are given in this table. nm=not measurable.
# The CV-1 and Cos-7 cells were cultured in Dulbeco's modified Eagle's medium (DMEM) containing 10% (v/v) of fetal calf serum (FCS) (Gibco, Grand Island, N.Y.), in a humidified atmosphere containing 5% CO2. The HeLa cells were cultured under the same conditions. Transient transfections were carried out in 6-well multiplates according to the calcium phosphate procedure already described (42). A reference recombinant plasmid, pCMV-βgal, expressing bacterial β-galactosidase, was transfected conjointly with the receptor expression vector and the corresponding reporter gene so as to correct possible variations in he transfection efficiency. The precipitate was removed by washing after 24 hours, and the cells were kept in DMEX without FCS but containing hormone. After another 24 hours, the cells were rinsed and lysed for 15 minutes with 0.3 ml of lysis buffer [25 mM Tris.phosphate, pH 7.8, 8 mM […], 1% Triton X100, 10% glycerol (48)]. The corresponding luciferase activity as determined on an aliquot fraction (0.1 ml), by evaluation of the luminescence peak (for an integration time of 15 seconds), after injection of 0.1 ml of 1 mM luciferin in an LKB luminometer. The β-galactosidase was determined by the method modified by Bocquel et al. (49), for controlling the efficiency of each transfection.
# The reporter gene pTAT-tk-Luc was provided by D. Gagne and was constructed as follows: an intermediate plasmid pTAT was first generated by insertion of the 966 bp EcoRI-BamHI segment obtained from pKT531 [offered freely by T. Grande (50)] into the corresponding sites of the vector pUC19 (Pharmacia). The fragment containing the sequence coding for the firefly luciferase and the thymidine kinase (tk) minimal promoter obtained from the Herpes simplex virus was isolated in the form of a BamHI fragment from pvit-tk-Luc (51) and inserted, downstream of the TAT promoter, into the corresponding site of pTAT. The reporter plasmid pGRE-tk-Luc was constructed by ligation of the fragment of HindIII-BglII digestion of pGRE-tk-CAT (52), which contains a synthetic GRE (AGAACAcagTGTTCT) upstream of the tk minimal promoter, into the HindIII-BglII sites of pLuc (53). The reporter gene p(17M)5-βGlob-Luc has been previously described (54). The reporter plasmid p(17M)5-tata-Luc was constructed from the plasmid p(17M)5-tata-CAT (55) by digestion with XhoI-BamHI and isolation of the fragment containing (17M5)-tata. This fragment was then inserted into the vector pGL2 (Promega) digested with the same restriction enzymes.
# Cre-LBD[GR(I747/T)] = target: T2, Cre-LBD[GR(I747/T)] (Homo sapiens, UniProt P04150, I747T); assay: PCR test of recombinase activity in HeLa cells cotransfected with pCre-LBD[GR(I747/T)] and pRXRα(LNL); type: cell-based; conditions: ligand 10^−7 M, 72 hours
# T2 construct: the region containing the mutated LBD of HG1 [aa 500-777]; Cre recombinase aa 1-343 (bacteriophage P1); F region of the human estrogen receptor (aa 553-595); expressed in transfected cells
# T2 sequence (P04150 500-777 I747T): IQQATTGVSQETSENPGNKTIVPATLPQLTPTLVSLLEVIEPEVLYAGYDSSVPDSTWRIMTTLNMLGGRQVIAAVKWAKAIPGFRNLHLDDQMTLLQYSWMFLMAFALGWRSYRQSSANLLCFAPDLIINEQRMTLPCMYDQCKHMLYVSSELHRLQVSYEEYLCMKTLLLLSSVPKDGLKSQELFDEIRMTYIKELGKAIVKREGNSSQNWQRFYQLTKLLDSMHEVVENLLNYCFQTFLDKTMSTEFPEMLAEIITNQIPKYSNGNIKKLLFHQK
# Protocol: [optionally cotransfected with 5 μg of the vector pRXRα^(LNL) for the HeLa cells] with the aid of an electroporator (Bio-Rad gene pulser), set at 200 V and 960 μF. The cells were then inoculated at 10^6 cells per 100 mm dish and treated, if necessary, with ligands.
# The products of the reaction were separated on acrylamide gel and stained with ethidium bromide. Lane 1 corresponds to the loading of the 1 kb ladder size marker (GibcoBRL).
SMILES,transactivation by the I747/T mutant receptor compared with wild-type receptor (hGR(I747/T)),Luciferase activity % hGR (I747/T) (hGR(I747/T)) [%],EC50 hGR (I747/T) (hGR(I747/T)),recombinase activity (PCR band of recombinant fragment) (Cre-LBD[GR(I747/T)])
"C[C@]12CCC(=O)C=C1CC[C@@H]1[C@@H]2[C@@H](O)C[C@]2(C=O)[C@@H](C(=O)CO)CC[C@@H]12 [Aldosterone, aldosterone]",suppressed,0,nM,only the fragment corresponding to the wild-type allele can be detected
"C[C@]12C[C@H](O)[C@H]3[C@@H](CCC4=CC(=O)CC[C@@]43C)[C@@H]1CC[C@@H]2C(=O)CO [Corticosterone, corticosterone]",suppressed,0,nM,only the fragment corresponding to the wild-type allele can be detected
"C[C@]12CCC(=O)C=C1CC[C@@H]1[C@@H]2[C@@H](O)C[C@@]2(C)[C@H]1CC[C@]2(O)C(=O)CO [Cortisol, cortisol]",greatly reduced,15,,only the fragment corresponding to the wild-type allele can be detected
"C[C@@H]1C[C@H]2[C@@H]3CCC4=CC(=O)C=C[C@]4(C)[C@@]3(F)[C@@H](O)C[C@]2(C)[C@@]1(O)C(=O)CO [Dexamethasone, dexamethasone]",,100,,
